Patent publication US20260365646A1, “AKT1 MODULATORS” (Alterome Therapeutics, Inc., priority 2022, published 2026)

Each compound was assayed against T1, full length AKT E17K (Homo sapiens, UniProt P31749, E17K) (assay: NanoBRET Target Engagement (TE) Intracellular Kinase Assay). Settings: not given.
T1 construct: host or cells: HEK-293 (ATCC CRL-1573)
Type: cell-based
From the text: The NanoBRET™ Target Engagement (TE) Intracellular Kinase Assays are based on the NanoBRET™ System (Promega Corporation), an energy transfer technique designed to measure molecular proximity in living cells. The NanoBRET™ TE Assays measure the apparent affinity of test compounds by competitive displacement of the NanoBRET™ tracer compound, which is a cell permeable molecule engineered to be reversibly bound to a NanoLuc® luciferase-kinase fusion expressed in cells. For compound screening, when a test compound binds to the selected kinase, the BRET signal is attenuated. […] All cells were evaluated for viability prior to transfection and optimization of the transfection was done prior to experimentation. […] Following transfection, cells were washed and resuspended in Opti-MEM. NanoBRET assays were performed in white, 384-well plates (Corning) at a density of 2×10^5 cells/well. All example compounds were prepared as concentrated stock solutions in DMSO (Sigma-Aldrich). Compounds are dissolved in DMSO to make 10 mM stock solution. […] A Labcyte ECHO 550 compound dispenser was used to facilitate compound transfer directly to cells. Cells were equilibrated for 2 hr with energy transfer probes and example compound prior to BRET measurements. […] For target engagement analysis, the energy transfer probes were added to the cells at concentrations optimized for the target in question (AKT E17K). Following compound incubation, NanoBRET NanoGlo Substrate (Promega Cat #Ni57D) and Extracellular Nanoluc Inhibitor (Promega Cat #N235C) was added according to the manufacturer's recommended protocol, and luminescence was measured on Envision Reader (Perkin Elmer) Multimode Luminometer equipped with 450 nm BPfilter (donor) and 600 nm LPfilter (acceptor), using 0.5 s integration time. Milli-BRET units (mBU) are calculated by multiplying the raw BRET values by 1000. Apparent tracer affinity values (EC50) were determined using the sigmoidal dose-response (variable slope). Competitive displacement data were then plotted and data were fit to determine the EC50 value for each example compound.

T1 sequence (P31749 whole entry E17K): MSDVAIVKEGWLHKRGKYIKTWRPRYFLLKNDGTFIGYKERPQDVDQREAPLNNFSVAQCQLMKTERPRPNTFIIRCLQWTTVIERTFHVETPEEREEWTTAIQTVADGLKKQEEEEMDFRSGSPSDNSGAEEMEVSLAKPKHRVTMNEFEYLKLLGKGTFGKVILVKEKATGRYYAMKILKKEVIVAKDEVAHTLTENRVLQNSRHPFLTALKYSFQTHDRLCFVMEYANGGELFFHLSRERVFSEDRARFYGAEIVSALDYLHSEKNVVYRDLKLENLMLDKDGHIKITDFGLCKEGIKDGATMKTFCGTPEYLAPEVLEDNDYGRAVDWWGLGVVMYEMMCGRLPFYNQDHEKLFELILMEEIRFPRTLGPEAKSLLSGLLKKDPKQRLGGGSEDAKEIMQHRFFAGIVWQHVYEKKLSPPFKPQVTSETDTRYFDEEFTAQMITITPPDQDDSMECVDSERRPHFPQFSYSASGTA

Row | Structure (SMILES) | EC50
1 | COc1c(N2[C@@H](C)CN(Cc3ccc(-n4c(-c5cccnc5N)nc5ccc(-c6ccccc6)nc54)cc3)C[C@@H]2C)c(=O)c1=O [Example 70, 3-((2S,6S)-4-(4-(2-(2-aminopyridin-3-yl)-5-phenyl-3H-imidazo[4,5-b]pyridin-3-yl)benzyl)-2,6-dimethylpiperazin-1-yl)-4-methoxycyclobut-3-ene-1,2-dione] | 60 to 600 nM
2 | COc1c(N2CCC3(CN(Cc4ccc(-n5c(-c6cccnc6N)nc6ccc(-c7ccccc7)nc65)cc4)C3)C2)c(=O)c1=O [Example 42, 3-(2-(4-(2-(2-Aminopyridin-3-yl)-5-phenyl-3H-imidazo[4,5-b]pyridin-3-yl)benzyl)-2,6-diazaspiro[3.4]octan-6-yl)-4-methoxycyclobut-3-ene-1,2-dione] | 15 to 60 nM
3 | COc1c(N2CCN(Cc3ccc(-n4c(-c5cccnc5N)nc5ccc(-c6ccccc6)nc54)cc3)CC2)c(=O)c1=O [Example 21, 3-(4-(4-(2-(2-Aminopyridin-3-yl)-5-phenyl-3H-imidazo[4,5-b]pyridin-3-yl)benzyl)piperazin-1-yl)-4-methoxycyclobut-3-ene-1,2-dione] | 15 to 60 nM
4 | COc1c(N[C@@H]2CCN(Cc3ccc(-n4c(-c5cccnc5N)nc5ccc(-c6ccccc6)nc54)cc3)C2)c(=O)c1=O [Example 50, (R)-3-((1-(4-(2-(2-Aminopyridin-3-yl)-5-phenyl-3H-imidazo[4,5-b]pyridin-3-yl)benzyl)pyrrolidin-3-yl)amino)-4-methoxycyclobut-3-ene-1,2-dione] | 15 to 60 nM
5 | COc1c(N2CCC3(CCN(Cc4ccc(-n5c(-c6cccnc6N)nc6ccc(-c7ccccc7)nc65)cc4)CC3)CC2)c(=O)c1=O [Example 99, 3-(9-(4-(2-(2-aminopyridin-3-yl)-5-phenyl-3H-imidazo[4,5-b]pyridin-3-yl)benzyl)-3,9-diazaspiro[5.5]undecan-3-yl)-4-methoxycyclobut-3-ene-1,2-dione] | 15 to 60 nM
6 | COc1c(N[C@H]2CCCN(Cc3ccc(-n4c(-c5cccnc5N)nc5ccc(-c6ccccc6)nc54)cc3)C2)c(=O)c1=O [Example 29, (S)-3-((1-(4-(2-(2-Aminopyridin-3-yl)-5-phenyl-3H-imidazo[4,5-b]pyridin-3-yl)benzyl)piperidin-3-yl)amino)-4-methoxycyclobut-3-ene-1,2-dione] | 60 to 600 nM
7 | COc1c(N2CCCC3(CCN(Cc4ccc(-n5c(-c6cccnc6N)nc6ccc(-c7ccccc7)nc65)cc4)CC3)C2)c(=O)c1=O [Example 31, 3-(9-(4-(2-(2-Aminopyridin-3-yl)-5-phenyl-3H-imidazo[4,5-b]pyridin-3-yl)benzyl)-2,9-diazaspiro[5.5]undecan-2-yl)-4-methoxycyclobut-3-ene-1,2-dione] | 15 to 60 nM
8 | COc1c(N2CCN(Cc3ccc(-n4c(-c5cccnc5N)nc5cc(-c6ccccc6)cnc54)cc3)CC2)c(=O)c1=O [Example 9, 3-(4-(4-(2-(2-Aminopyridin-3-yl)-6-phenyl-3H-imidazo[4,5-b]pyridin-3-yl)benzyl)piperazin-1-yl)-4-methoxycyclobut-3-ene-1,2-dione] | 60 to 600 nM
9 | COc1c(N2CC3(CN(Cc4ccc(-n5c(-c6cccnc6N)nc6ccc(-c7ccccc7)nc65)cc4)C3)C2)c(=O)c1=O [Example 41, 3-(6-(4-(2-(2-Aminopyridin-3-yl)-5-phenyl-3H-imidazo[4,5-b]pyridin-3-yl)benzyl)-2,6-diazaspiro[3.3]heptan-2-yl)-4-methoxycyclobut-3-ene-1,2-dione] | > 600 nM
10 | COc1c(N2CCC3(CCN(Cc4ccc(-n5c(-c6cccnc6N)nc6ccc(-c7ccccc7)nc65)cc4)C3)CC2)c(=O)c1=O [Example 57, 3-(2-(4-(2-(2-Aminopyridin-3-yl)-5-phenyl-3H-imidazo[4,5-b]pyridin-3-yl)benzyl)-2,8-diazaspiro[4.5]decan-8-yl)-4-methoxycyclobut-3-ene-1,2-dione] | 15 to 60 nM
11 | Nc1ncccc1-c1nc2ccc(-c3ccccc3)nc2n1-c1ccc(CN2CCN(c3c(OC4CCCC4)c(=O)c3=O)CC2)cc1 [Example 26, 3-(4-(4-(2-(2-aminopyridin-3-yl)-5-phenyl-3H-imidazo[4,5-b]pyridin-3-yl)benzyl)piperazin-1-yl)-4-(cyclopentyloxy)cyclobut-3-ene-1,2-dione] | > 600 nM

Same assay, conditions: read-out: NanoBRET AKT1E17K EC50; HEK-293 cells transfected with NanoLuc-AKT E17K; competitive displacement of NanoBRET tracer; 2 hr equilibration; 10-point 3-fold dilution

Row | Structure (SMILES) | EC50
12 | COc1c(N(C)[C@H]2CCN(Cc3ccc(-n4c(-c5cccnc5N)nc5ccc(-c6ccccc6)nc54)cc3)C2)c(=O)c1=O [Example 81, (S)-3-((1-(4-(2-(2-aminopyridin-3-yl)-5-phenyl-3H-imidazo[4,5-b]pyridin-3-yl)benzyl)pyrrolidin-3-yl)(methyl)amino)-4-methoxycyclobut-3-ene-1,2-dione] | < 15 nM
13 | COc1c(N2CCCN(Cc3ccc(-n4c(-c5cccnc5N)nc5ccc(-c6ccccc6)nc54)cc3)CC2)c(=O)c1=O [Example 38, 3-(4-(4-(2-(2-Aminopyridin-3-yl)-5-phenyl-3H-imidazo[4,5-b]pyridin-3-yl)benzyl)-1,4-diazepan-1-yl)-4-methoxycyclobut-3-ene-1,2-dione] | < 15 nM
14 | CSc1c(N(C)C2CCN(Cc3ccc(-n4c(-c5cccnc5N)nc5ccc(-c6ccccc6)nc54)cc3)CC2)c(=O)c1=O [Example 47, 3-((1-(4-(2-(2-aminopyridin-3-yl)-5-phenyl-3H-imidazo[4,5-b]pyridin-3-yl)benzyl)piperidin-4-yl)(methyl)amino)-4-(methylthio)cyclobut-3-ene-1,2-dione] | < 15 nM
15 | [2H]C([2H])([2H])N(c1c(OC)c(=O)c1=O)C1CCN(Cc2ccc(-n3c(-c4cccnc4N)nc4ccc(-c5ccccc5)nc43)cc2)CC1 [Example 100, 3-((1-(4-(2-(2-aminopyridin-3-yl)-5-phenyl-3H-imidazo[4,5-b]pyridin-3-yl)benzyl)piperidin-4-yl)(methyl-d3)amino)-4-methoxycyclobut-3-ene-1,2-dione] | < 15 nM
16 | COc1c(N(CCO)C2CCN(Cc3ccc(-n4c(-c5cccnc5N)nc5ccc(-c6ccccc6)nc54)cc3)CC2)c(=O)c1=O [Example 48, 3-((1-(4-(2-(2-Aminopyridin-3-yl)-5-phenyl-3H-imidazo[4,5-b]pyridin-3-yl)benzyl)piperidin-4-yl)(2-hydroxyethyl)amino)-4-methoxycyclobut-3-ene-1,2-dione] | < 15 nM
17 | COc1c(N2CC3(CCN(Cc4ccc(-n5c(-c6cccnc6N)nc6ccc(-c7ccccc7)nc65)cc4)CC3)C2)c(=O)c1=O [Example 53, 3-(7-(4-(2-(2-Aminopyridin-3-yl)-5-phenyl-3H-imidazo[4,5-b]pyridin-3-yl)benzyl)-2,7-diazaspiro[3.5]nonan-2-yl)-4-methoxycyclobut-3-ene-1,2-dione] | < 15 nM
18 | CSc1c(N2C[C@H]3CN(Cc4ccc(-n5c(-c6cccnc6N)nc6ccc(-c7ccccc7)nc65)cc4)C[C@H]3C2)c(=O)c1=O [Example 87, 3-((3aR,6aS)-5-(4-(2-(2-aminopyridin-3-yl)-5-phenyl-3H-imidazo[4,5-b]pyridin-3-yl)benzyl)hexahydropyrrolo[3,4-c]pyrrol-2(1H)-yl)-4-(methylthio)cyclobut-3-ene-1,2-dione] | < 15 nM
19 | COc1c(NC2CN(Cc3ccc(-n4c(-c5cccnc5N)nc5ccc(-c6ccccc6)nc54)cc3)C2)c(=O)c1=O [Example 51, 3-((1-(4-(2-(2-Aminopyridin-3-yl)-5-phenyl-3H-imidazo[4,5-b]pyridin-3-yl)benzyl)azetidin-3-yl)amino)-4-methoxycyclobut-3-ene-1,2-dione] | < 15 nM
20 | COc1c(N(C)C2CCN(Cc3ccc(-n4c(-c5cccnc5N)nc5ccc(-c6ccccc6)nc54)cc3)CC2)c(=O)c1=O [Example 27, 3-((1-(4-(2-(2-aminopyridin-3-yl)-5-phenyl-3H-imidazo[4,5-b]pyridin-3-yl)benzyl)piperidin-4-yl)(methyl)amino)-4-methoxycyclobut-3-ene-1,2-dione] | < 15 nM
21 | COc1c(N2C[C@@H]3C[C@H]2CN3Cc2ccc(-n3c(-c4cccnc4N)nc4ccc(-c5ccccc5)nc43)cc2)c(=O)c1=O [Example 75, 3-((1S,4S)-5-(4-(2-(2-aminopyridin-3-yl)-5-phenyl-3H-imidazo[4,5-b]pyridin-3-yl)benzyl)-2,5-diazabicyclo[2.2.1]heptan-2-y1)-4-methoxycyclobut-3-ene-1,2-dione] | < 15 nM
22 | CCN(c1c(OC)c(=O)c1=O)C1CCN(Cc2ccc(-n3c(-c4cccnc4N)nc4ccc(-c5ccccc5)nc43)cc2)CC1 [Example 91, 3-((1-(4-(2-(2-aminopyridin-3-yl)-5-phenyl-3H-imidazo[4,5-b]pyridin-3-yl)benzyl)piperidin-4-yl)(ethyl)amino)-4-methoxycyclobut-3-ene-1,2-dione] | < 15 nM
